Article PMC6704710, “Preclinical evaluation of 3D185, a novel potent inhibitor of FGFR1/2/3 and CSF-1R, in FGFR-dependent and macrophage-dominant cancer models” (Journal of Experimental & Clinical Cancer Research : CR, 2019)

How the values were obtained:
PEK(h) = target: T1, PEK(h) (Homo sapiens, UniProt Q9NZJ5); assay: Eurofins kinase panel; type: biochemical; details: read-out: Inhibition rate (%)
T1 construct: purchased Eurofins (KinaseProfiler)
T1 sequence (Q9NZJ5 30-1116): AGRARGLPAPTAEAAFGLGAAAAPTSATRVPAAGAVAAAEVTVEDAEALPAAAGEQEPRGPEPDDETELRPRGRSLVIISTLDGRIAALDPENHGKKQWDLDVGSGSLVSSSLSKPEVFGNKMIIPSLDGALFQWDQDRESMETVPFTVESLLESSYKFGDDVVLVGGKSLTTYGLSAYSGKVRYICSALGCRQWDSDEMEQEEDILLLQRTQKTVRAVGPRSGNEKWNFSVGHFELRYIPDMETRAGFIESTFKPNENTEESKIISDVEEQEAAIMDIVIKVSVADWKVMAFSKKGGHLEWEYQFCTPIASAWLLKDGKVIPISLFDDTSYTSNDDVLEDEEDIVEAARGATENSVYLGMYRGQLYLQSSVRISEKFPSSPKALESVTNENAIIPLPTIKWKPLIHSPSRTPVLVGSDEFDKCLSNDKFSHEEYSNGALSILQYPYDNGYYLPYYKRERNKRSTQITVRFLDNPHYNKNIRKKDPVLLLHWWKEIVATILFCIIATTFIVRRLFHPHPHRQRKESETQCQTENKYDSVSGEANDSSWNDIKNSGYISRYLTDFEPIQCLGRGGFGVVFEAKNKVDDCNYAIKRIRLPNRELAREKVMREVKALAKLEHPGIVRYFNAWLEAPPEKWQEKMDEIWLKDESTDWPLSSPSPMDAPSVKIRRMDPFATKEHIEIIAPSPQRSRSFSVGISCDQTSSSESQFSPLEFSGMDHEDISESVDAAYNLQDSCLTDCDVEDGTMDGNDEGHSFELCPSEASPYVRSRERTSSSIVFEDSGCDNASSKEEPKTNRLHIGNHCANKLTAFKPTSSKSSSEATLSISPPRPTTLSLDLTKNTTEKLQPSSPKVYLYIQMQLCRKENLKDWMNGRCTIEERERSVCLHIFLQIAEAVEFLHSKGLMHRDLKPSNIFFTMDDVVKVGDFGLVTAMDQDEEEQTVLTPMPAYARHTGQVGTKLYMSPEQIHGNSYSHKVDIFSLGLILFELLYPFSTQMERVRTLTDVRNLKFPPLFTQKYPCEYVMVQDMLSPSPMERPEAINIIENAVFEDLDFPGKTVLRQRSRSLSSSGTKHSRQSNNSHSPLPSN
Protocol: (§1) Active FGFR1–4, VEGFR1, KDR, VEGFR3, PDGFRα and PDGFRβ proteins were purchased from Eurofins (Fremont, United States), and kinase activity was assessed using ELISA, as previously reported. […]. Increasing concentrations of ATP were diluted for the kinase reaction in the ATP competition assay. CSF-1R kinase activity was analyzed using the Z’-LYTE™ Kinase Assay Kit (Thermo Fisher, United States). The assay formats are described in the SelectScreen Kinase Profiling Service Zlyte protocol. IC50 values were calculated by dose-response curve fitting using Prism (Graph Pad).

Ron(h) = target: T2, Ron(h) (Homo sapiens, UniProt Q04912); assay: Eurofins kinase panel; type: biochemical; details: read-out: Inhibition rate (%)
T2 construct: purchased Eurofins (KinaseProfiler)
T2 sequence (Q04912 25-1400): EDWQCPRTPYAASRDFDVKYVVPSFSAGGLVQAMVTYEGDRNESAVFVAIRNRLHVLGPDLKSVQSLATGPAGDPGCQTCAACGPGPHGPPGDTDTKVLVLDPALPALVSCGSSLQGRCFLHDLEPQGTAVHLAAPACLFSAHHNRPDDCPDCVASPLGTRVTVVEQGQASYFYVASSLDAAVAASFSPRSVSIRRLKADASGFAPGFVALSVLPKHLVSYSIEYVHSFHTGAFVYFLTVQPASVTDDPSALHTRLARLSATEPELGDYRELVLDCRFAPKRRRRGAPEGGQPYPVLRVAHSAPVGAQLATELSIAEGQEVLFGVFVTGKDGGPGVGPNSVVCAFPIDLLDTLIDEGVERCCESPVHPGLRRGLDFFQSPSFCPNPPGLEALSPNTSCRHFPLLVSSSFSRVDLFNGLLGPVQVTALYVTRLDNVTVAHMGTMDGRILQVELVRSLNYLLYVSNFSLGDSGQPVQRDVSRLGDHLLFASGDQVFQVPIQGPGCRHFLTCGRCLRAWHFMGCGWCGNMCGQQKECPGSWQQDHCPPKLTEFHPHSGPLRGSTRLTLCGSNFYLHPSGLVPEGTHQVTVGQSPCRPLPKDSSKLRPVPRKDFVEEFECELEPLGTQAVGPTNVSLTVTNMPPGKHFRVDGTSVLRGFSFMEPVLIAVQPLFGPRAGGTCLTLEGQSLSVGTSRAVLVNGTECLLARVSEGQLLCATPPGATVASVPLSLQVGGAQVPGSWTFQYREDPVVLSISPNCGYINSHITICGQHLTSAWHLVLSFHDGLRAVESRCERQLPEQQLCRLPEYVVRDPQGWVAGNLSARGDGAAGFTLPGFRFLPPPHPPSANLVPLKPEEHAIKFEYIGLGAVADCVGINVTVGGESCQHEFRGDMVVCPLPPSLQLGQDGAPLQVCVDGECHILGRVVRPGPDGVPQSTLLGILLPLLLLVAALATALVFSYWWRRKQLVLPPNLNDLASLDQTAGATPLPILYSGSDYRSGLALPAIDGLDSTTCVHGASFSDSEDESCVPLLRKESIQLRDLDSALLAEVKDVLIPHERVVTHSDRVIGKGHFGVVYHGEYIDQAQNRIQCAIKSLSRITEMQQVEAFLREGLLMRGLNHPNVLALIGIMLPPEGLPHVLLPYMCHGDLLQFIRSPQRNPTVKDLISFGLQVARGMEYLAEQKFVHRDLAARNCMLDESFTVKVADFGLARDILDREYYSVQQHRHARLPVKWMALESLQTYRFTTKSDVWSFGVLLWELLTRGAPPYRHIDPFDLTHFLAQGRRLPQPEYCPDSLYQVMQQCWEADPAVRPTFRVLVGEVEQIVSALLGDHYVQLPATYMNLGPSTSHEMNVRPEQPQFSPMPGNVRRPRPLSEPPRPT
Protocol: as §1

SAPK2a(h) = target: T3, SAPK2a(h) (Homo sapiens, UniProt Q16539); assay: Eurofins kinase panel; type: biochemical; details: read-out: Inhibition rate (%)
T3 construct: purchased Eurofins (KinaseProfiler)
T3 sequence (Q16539 whole entry): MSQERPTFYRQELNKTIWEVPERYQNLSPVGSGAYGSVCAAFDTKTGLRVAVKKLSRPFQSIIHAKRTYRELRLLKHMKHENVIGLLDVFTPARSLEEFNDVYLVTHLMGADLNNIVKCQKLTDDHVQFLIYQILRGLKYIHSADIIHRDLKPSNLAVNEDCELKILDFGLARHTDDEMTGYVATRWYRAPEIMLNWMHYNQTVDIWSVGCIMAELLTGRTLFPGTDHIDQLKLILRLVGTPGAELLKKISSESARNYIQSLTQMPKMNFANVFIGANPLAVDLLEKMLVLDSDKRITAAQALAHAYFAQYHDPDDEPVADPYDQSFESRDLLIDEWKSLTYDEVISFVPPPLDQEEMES
Protocol: as §1

Mnk2(h) = target: T4, Mnk2(h) (Homo sapiens, UniProt Q9HBH9); assay: Eurofins kinase panel; type: biochemical; details: read-out: Inhibition rate (%)
T4 construct: purchased Eurofins (KinaseProfiler)
T4 sequence (Q9HBH9 whole entry): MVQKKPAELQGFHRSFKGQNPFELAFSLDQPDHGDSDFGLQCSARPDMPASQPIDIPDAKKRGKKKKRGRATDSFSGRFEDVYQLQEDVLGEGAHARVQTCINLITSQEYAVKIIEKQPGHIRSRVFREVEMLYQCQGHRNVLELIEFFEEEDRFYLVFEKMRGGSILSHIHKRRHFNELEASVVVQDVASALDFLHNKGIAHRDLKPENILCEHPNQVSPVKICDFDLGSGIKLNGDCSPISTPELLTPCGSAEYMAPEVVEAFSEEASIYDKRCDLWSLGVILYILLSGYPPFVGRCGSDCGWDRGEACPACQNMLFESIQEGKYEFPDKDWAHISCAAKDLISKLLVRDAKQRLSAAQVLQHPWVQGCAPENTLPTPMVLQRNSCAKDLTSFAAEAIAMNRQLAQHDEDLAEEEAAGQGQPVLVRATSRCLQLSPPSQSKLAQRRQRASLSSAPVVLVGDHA

NEK11(h) = target: T5, NEK11(h) (Homo sapiens, UniProt Q8NG66); assay: Eurofins kinase panel; type: biochemical; details: read-out: Inhibition rate (%)
T5 construct: purchased Eurofins (KinaseProfiler)
T5 sequence (Q8NG66 1-645): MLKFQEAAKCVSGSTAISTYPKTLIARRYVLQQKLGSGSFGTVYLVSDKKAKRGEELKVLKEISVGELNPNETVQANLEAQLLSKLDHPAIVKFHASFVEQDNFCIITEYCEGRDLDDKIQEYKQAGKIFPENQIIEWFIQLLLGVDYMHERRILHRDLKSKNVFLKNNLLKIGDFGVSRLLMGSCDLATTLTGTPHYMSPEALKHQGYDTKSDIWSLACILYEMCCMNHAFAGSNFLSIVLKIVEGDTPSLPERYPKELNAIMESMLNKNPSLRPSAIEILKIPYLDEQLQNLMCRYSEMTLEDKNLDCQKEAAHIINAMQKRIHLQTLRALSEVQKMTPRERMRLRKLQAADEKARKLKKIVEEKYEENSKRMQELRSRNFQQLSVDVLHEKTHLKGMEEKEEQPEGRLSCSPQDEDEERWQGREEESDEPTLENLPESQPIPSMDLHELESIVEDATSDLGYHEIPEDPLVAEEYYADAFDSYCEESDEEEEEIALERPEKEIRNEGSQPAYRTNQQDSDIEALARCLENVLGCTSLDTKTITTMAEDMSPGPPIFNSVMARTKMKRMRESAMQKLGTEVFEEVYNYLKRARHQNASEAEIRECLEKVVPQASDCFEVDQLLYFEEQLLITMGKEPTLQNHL

SAPK2a(T106M)(h) = target: T6, SAPK2a(T106M)(h) (Homo sapiens, UniProt Q16539, T106M); assay: Eurofins kinase panel; type: biochemical; details: read-out: Inhibition rate (%)
T6 construct: purchased Eurofins (KinaseProfiler)
T6 sequence (Q16539 whole entry T106M): as the sequence (Q16539 whole entry) above, with T106M counted along it

WNK3(h) = target: T7, WNK3(h) (Homo sapiens, UniProt Q9BYP7); assay: Eurofins kinase panel; type: biochemical; details: read-out: Inhibition rate (%)
T7 construct: purchased Eurofins (KinaseProfiler)
T7 sequence (Q9BYP7 whole entry): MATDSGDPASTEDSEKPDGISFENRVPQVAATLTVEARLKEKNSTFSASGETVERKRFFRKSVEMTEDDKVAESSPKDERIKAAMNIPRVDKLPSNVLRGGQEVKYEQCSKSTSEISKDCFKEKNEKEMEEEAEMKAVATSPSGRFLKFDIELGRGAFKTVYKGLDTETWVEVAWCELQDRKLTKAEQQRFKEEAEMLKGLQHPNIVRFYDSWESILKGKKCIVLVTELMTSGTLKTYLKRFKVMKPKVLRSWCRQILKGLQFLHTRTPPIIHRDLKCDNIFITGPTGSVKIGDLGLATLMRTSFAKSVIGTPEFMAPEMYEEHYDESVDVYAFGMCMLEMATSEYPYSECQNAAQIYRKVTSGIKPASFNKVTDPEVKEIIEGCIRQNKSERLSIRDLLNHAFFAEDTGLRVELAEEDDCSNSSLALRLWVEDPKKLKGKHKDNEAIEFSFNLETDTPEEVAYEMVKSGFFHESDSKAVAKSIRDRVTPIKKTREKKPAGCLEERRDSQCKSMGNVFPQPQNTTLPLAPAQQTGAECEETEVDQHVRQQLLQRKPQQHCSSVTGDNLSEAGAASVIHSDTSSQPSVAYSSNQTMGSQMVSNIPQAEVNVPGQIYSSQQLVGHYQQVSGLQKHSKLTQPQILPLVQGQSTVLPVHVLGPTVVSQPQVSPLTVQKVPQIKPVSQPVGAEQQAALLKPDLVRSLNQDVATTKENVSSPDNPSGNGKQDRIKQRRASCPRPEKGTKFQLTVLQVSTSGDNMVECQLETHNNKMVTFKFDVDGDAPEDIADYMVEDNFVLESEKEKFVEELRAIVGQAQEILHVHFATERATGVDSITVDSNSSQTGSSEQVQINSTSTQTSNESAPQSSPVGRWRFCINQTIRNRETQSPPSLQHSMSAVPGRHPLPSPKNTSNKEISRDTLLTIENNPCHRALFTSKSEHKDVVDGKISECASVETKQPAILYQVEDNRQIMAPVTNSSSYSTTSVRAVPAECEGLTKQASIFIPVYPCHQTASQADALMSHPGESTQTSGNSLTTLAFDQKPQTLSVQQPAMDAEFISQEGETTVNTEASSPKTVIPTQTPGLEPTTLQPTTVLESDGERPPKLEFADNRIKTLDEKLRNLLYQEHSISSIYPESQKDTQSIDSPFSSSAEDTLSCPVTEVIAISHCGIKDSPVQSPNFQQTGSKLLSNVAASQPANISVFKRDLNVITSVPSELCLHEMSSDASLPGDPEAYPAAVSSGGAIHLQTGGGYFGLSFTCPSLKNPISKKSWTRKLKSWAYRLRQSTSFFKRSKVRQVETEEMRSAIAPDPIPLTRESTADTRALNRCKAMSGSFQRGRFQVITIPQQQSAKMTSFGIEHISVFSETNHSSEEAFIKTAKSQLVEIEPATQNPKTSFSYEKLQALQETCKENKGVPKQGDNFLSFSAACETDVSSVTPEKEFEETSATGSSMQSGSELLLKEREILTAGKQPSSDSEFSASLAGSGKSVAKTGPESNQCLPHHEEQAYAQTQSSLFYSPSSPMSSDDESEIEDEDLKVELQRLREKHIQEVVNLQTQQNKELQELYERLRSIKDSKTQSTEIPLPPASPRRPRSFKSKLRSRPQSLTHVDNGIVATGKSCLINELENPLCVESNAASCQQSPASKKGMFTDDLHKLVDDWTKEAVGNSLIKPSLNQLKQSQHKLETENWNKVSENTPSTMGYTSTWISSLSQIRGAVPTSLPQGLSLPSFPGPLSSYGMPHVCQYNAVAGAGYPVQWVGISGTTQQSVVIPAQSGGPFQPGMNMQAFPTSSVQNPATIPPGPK

FGFR4 = target: T8, FGFR4 (Homo sapiens, UniProt P22455); assay: Kinase inhibition assay (ELISA); type: biochemical; details: mean ± SD
T8 construct: purchased Eurofins (Fremont, United States)
T8 sequence (P22455 22-802): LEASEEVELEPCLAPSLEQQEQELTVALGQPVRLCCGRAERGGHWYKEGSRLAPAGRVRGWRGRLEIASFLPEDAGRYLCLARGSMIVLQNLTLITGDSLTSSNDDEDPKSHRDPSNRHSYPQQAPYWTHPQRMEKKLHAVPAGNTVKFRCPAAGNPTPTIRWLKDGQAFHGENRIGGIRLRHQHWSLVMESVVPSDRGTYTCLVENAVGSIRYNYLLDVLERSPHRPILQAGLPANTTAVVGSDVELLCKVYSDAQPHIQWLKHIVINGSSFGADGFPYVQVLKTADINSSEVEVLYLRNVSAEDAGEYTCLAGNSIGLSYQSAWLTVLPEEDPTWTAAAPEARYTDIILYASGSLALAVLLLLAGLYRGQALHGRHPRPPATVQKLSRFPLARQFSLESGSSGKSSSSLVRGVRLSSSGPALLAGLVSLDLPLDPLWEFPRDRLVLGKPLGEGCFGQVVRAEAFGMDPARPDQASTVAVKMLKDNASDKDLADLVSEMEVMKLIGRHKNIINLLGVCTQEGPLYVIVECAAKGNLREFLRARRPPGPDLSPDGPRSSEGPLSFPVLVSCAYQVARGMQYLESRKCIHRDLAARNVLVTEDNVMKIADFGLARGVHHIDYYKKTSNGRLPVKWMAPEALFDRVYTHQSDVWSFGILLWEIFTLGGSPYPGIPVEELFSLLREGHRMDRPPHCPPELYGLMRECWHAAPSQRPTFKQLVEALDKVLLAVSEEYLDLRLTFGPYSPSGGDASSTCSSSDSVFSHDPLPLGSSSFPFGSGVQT

[1] = test system: MC38 colorectal adenocarcinoma model; assay: In vivo antitumor activity, MC38 model; design: species or system C57BL/6 mice; details: oral once daily 23 days
Protocol: For the MC38 xenograft model, 6-week-old C57BL/6 mice were housed and maintained under specific pathogen-free conditions. Tumor cells (2 × 10^6 in 200 μL) were injected subcutaneously (s.c.) into the right flanks of C57BL/6 mice. […] The tumors were measured twice per week using a microcaliper. Tumor volume (TV) was calculated as follows: TV = (length × width^2)/2. In addition, the individual relative tumor volume (RTV) was calculated as follows: RTV = Vt / V0, where Vt is the volume on a particular day and V0 is the volume at the beginning of the treatment. The RTV is shown on the indicated days as the […] ± SEM for the indicated groups of mice.

Compound: COc1cc(OC)c(Cl)c(-c2ccc3c(NC(=O)c4ccc(N5CCNC(C)(C)C5)cc4)n[nH]c3n2)c1Cl [3D185]
- inhibition at 0.01 µM (PEK(h); 10 nM): -7%
- inhibition at 0.1 µM (PEK(h); 100 nM): 6%
- inhibition at 1 µM (PEK(h); 1000 nM): 55%
- inhibition at 0.01 µM (Ron(h); 10 nM): -16%
- inhibition at 0.1 µM (Ron(h); 100 nM): -10%
- inhibition at 1 µM (Ron(h); 1000 nM): 28%
- inhibition at 0.01 µM (SAPK2a(h); 10 nM): -7%
- inhibition at 0.1 µM (SAPK2a(h); 100 nM): -2%
- inhibition at 1 µM (SAPK2a(h); 1000 nM): -4%
- inhibition at 0.01 µM (Mnk2(h); 10 nM): -2%
- inhibition at 0.1 µM (Mnk2(h); 100 nM): -10%
- inhibition at 1 µM (Mnk2(h); 1000 nM): -9%
- inhibition at 0.01 µM (NEK11(h); 10 nM): 5%
- inhibition at 0.1 µM (NEK11(h); 100 nM): 15%
- inhibition at 1 µM (NEK11(h); 1000 nM): 37%
- inhibition at 0.01 µM (SAPK2a(T106M)(h); 10 nM): 0%
- inhibition at 0.1 µM (SAPK2a(T106M)(h); 100 nM): 3%
- inhibition at 1 µM (SAPK2a(T106M)(h); 1000 nM): -3%
- inhibition at 0.01 µM (WNK3(h); 10 nM): -7%
- inhibition at 0.1 µM (WNK3(h); 100 nM): 12%
- inhibition at 1 µM (WNK3(h); 1000 nM): 71%
- IC50 (FGFR4): 51.4 nM
- effect on MC38 tumor growth [1]: delayed tumor growth
